Measurements from patent US10975035B2, “Bicyclic compounds” (Recurium IP Holdings, LLC, priority 2014, dated 2021).
Counter-ions that a name gives are not always drawn.

System: male ICR mice
Test: Formalin paw test
Type: in vivo, mouse
Settings: for Early Phase: early/acute phase (0-10 minutes) after formalin; for Late Phase: late/tonic phase (10-35 minutes) after formalin
Procedure: One test compound or the vehicle was administered to each mouse in each test group (8 mice per group). Non-fasted male ICR mice weighing 23±3 g were used. Test compounds were administered at a concentration of 3 mg/kg, 10 mg/kg, 15 mg/kg, 30 mg/kg, 60 mg/kg, 100 mg/kg, 200 mg/kg or 300 mg/kg; morphine was administered at a concentration of 5 mg/kg; and acetaminophen was administered at a concentration of 200 mg/kg. The control group received the vehicle (5% DMSO/40% PEG400/20% HPbCD/Saline). After 30 or 60 minutes, a 2% formalin solution (0.02 mL) was injected into one hind paw (sub-plantar) of each mouse. Responses were measured every 5 minutes after the formalin injection for 35 minutes.
The results in Table A are for oral administration; the results in Table B are for intraperitoneal administration. In Tables A and B, ‘A’ designates <70 licks/sec, ‘B’ designates ≥70 licks/sec and <165 licks/sec, and ‘C’ designates ≥165 licks/sec.

[1] = intraperitoneal administration, 30 mg/kg

SMILES | Early Phase (oral administration, 200 mg/kg) | Late Phase (oral administration, 200 mg/kg) | Early Phase [1] | Late Phase [1]
CC(C)(C)C(=O)NC12CC(C1)C2 [Compound 12] | B (‘B’ designates ≥70 licks/sec and <165 licks/sec) | C (‘C’ designates ≥165 licks/sec) | – | –
CC(=O)NCC12CC(C(C)(C)C)(C1)C2 [Compound 1, N-((3-(tert-butyl)bicyclo[1.1.1]pentan-1-yl)methyl)acetamide] | A (‘A’ designates <70 licks/sec) | A (‘A’ designates <70 licks/sec) | – | –
CC(=O)NC12CC(C(F)(F)F)(C1)C2 [Compound 4] | A (‘A’ designates <70 licks/sec) | C (‘C’ designates ≥165 licks/sec) | – | –
NCCC12CC(C(F)(F)F)(C1)C2 [Compound 21, 2-(3-(trifluoromethyl)bicyclo[1.1.1]pentan-1-yl)ethanamine, hydrochloride] | – | – | B (‘B’ designates ≥70 licks/sec and <165 licks/sec) | B (‘B’ designates ≥70 licks/sec and <165 licks/sec)
CC(=O)NCC12CC(C(F)(F)F)(C1)C2 [Compound 2] | B (‘B’ designates ≥70 licks/sec and <165 licks/sec) | B (‘B’ designates ≥70 licks/sec and <165 licks/sec) | – | –
CC(=O)NC12CC(C(C)C)(C1)C2 [Compound 8] | A (‘A’ designates <70 licks/sec) | A (‘A’ designates <70 licks/sec) | – | –
CC(=O)NC12CC(C)(C1)C2 [Compound 6] | B (‘B’ designates ≥70 licks/sec and <165 licks/sec) | B (‘B’ designates ≥70 licks/sec and <165 licks/sec) | – | –
CC(C)(C)C(=O)NC12CC(C(C)(C)C)(C1)C2 [Compound 11] | A (‘A’ designates <70 licks/sec) | A (‘A’ designates <70 licks/sec) | – | –
CC(=O)NC12CC(C(C)(C)O)(C1)C2 [Compound 18] | – | – | B (‘B’ designates ≥70 licks/sec and <165 licks/sec) | C (‘C’ designates ≥165 licks/sec)
CC(=O)N(C)C12CC(C(C)(C)C)(C1)C2 [Compound 14] | A (‘A’ designates <70 licks/sec) | A (‘A’ designates <70 licks/sec) | – | –
CC(C)(C)C12CC(CN)(C1)C2 [Compound 1c, (3-(tert-butyl)bicyclo[1.1.1]pentan-1-yl)methanamine] | – | – | B (‘B’ designates ≥70 licks/sec and <165 licks/sec) | B (‘B’ designates ≥70 licks/sec and <165 licks/sec)
O=C(NC12CC(C1)C2)C(F)(F)F [Compound 9] | B (‘B’ designates ≥70 licks/sec and <165 licks/sec) | C (‘C’ designates ≥165 licks/sec) | – | –
